Key:
[1] = test system: Undifferentiated hES cells of the H7 line; assay: Direct differentiation of plated hES cells to contracting cardiomyocytes; type: cell-based, human; conditions: 10 μM at day 10-12 or 12-14; no embryoid body stage
Procedure: Cardiomyocyte differentiation was also achieved in a direct differentiation paradigm. Undifferentiated hES cells of the H7 line were dissociated and plated directly onto gelatin-coated plates without going through an embryoid body stage. The plated cells were cultured in differentiation medium (80% KO-DMEM, 1 mM L-glutamine, 0.1 mM β-mercaptoethanol, 1% amino acids, and 20% fetal bovine serum). Contracting cardiomyocytes were found at day 18 in cultures treated with 10 μM 5-aza-deoxy-cytidine at day 10-12 or 12-14, and at later times in all cultures.

[2] = test system: hES cells of the H1 or H9 line being cultured as embryoid bodies
[3] = test system: cardiomyogenic cell line developed from bone marrow stroma; conditions: treated for 24 hours; cited from earlier work
[4] = test system: hES-derived cardiomyocytes; assay: Pharmacological response: contraction rate of beating areas of hES-derived cardiomyocytes; type: cell-based, human; conditions: for chronotropic effect: FIG. 5 Panels B to E
Procedure: EBs were plated on to gelatin-coated 24-well plates and allowed to differentiate, as in Example 2. Contracting cardiomyocytes at differentiation day 15-21 were used for examining pharmacological response. The frequency of the spontaneous beating was measured by counting the contraction rate of the beating areas maintained in the differentiation medium in a 37° C. heating chamber of an inverted microscope. The cells were then incubated with test compounds in the incubator for 20-30 min, and observed for contraction rate. Dose-dependent effects were determined by cumulatively applying of increasing concentrations of each substrate. Data represent the mean pulsation rate±standard error of the mean measured on 10-20 beating areas.
Differentiated cells were incubated with various concentrations of the drug and the number of beats per minute was counted. The cells were then washed with medium, maintained in differentiation medium for 24 h and observed for the time taken to recover contractility.

In the case of `Nc1ncn([C@H]2C[C@H](O)[C@@H](CO)O2)c(=O)n1` [5-aza-deoxy-cytidine], the “day at which contracting cardiomyocytes were found” value [1] is reported as 18 days, the “proportion of beating areas in the culture” value ([2]; 1 to 10 μM at day 6-8) is reported as “increased” and the “expression of cardiac α-MHC (ratio of αMHC to 18S RNA)” value ([2]; 1 to 10 μM at day 6-8, harvested at day 15) is reported as “significantly increased”.
For `Nc1ncn([C@@H]2O[C@H](CO)[C@@H](O)[C@H]2O)c(=O)n1` [5-azacytidine], the “cells forming myotube-like structures, acquiring cardiomyocyte markers and beginning to beat” value [3] is given as 30%.
In the case of `C[S+](C)[O-]` [DMSO, dimethyl sulfoxide], the “toxicity to the cells” value [2] is reported as “toxic”, the “beating areas compared with non-treated cultures” value ([2]; 0.5% from days 0-4) is reported as “fewer” and the beating cells ([2]; 0.8% or 1%) is reported as “absent”. For the same compound, the “α-MHC expression compared with untreated cultures” value ([2]; DMSO treatment) was “significant reduction”.
For `CC1=C(/C=C/C(C)=C/C=C/C(C)=C/C(=O)O)C(C)(C)CCC1` [RA, all-trans retinoic acid], the “toxicity to the cells” value [2] was “toxic” and the “beating cells compared with untreated cultures” value ([2]; doses between 10^−9 and 10^−5 M, at days 4-8, 8-15, or 4-15) was “no increase”.
In the case of `CC(C)(C)NCC(O)c1cc(Cl)c(N)c(Cl)c1` (stereo not shown) [clenbuterol], the “beating rate after treatment” value ([4]; 1-10 nM, cells taken at Day 72, from about 72 beats/min, p<0.005) is reported as “about 98 beats/min”.
In the case of `COc1ccc([C@@H]2Sc3ccccc3N(CCN(C)C)C(=O)[C@@H]2OC(C)=O)cc1` [diltiazem], the “beating areas that stopped contraction” value ([4]; 10^−5 M) is reported as 100%, the “time until contraction recovered to normal levels after removal of the drug” value ([4]; cells washed and kept in differentiation medium) is reported as 24 to 48 h and the beating rate ([4]; various concentrations, incubated 20-30 min, differentiation day 15-21, FIG. 5 Panel A) is reported as “inhibited”.
With `CC(C)NCC(O)c1ccc(O)c(O)c1` (stereo not shown) [isoprenaline] the chronotropic effect [4] was “positive chronotropic effects”.
In the case of `CNC[C@H](O)c1cccc(O)c1` [phenylephrine], the chronotropic effect [4] is reported as “positive chronotropic effects”.
